For one data set, the target named is T1, porcine pepsin (Sus scrofa, UniProt P00791).
T1 construct: purchased Worthington Biochemical Corporation
The data set can be described thus: peptic activity assay, fluorescence polarization with casein-Alexa647. The data set is classed as biochemical. As to conditions: for IC50 for pepsin: in vitro binding and inhibition assays, IC50 from kinetic traces. As for the experimental part: To examine whether HIV protease inhibitors bound and inhibited pepsin, we developed assays based on fluorescence polarization which measures size-dependent molecular rotation thereby permitting detection of degradation, association and dissociation events^80. A competitive binding assay was designed employing pepstatin, an inhibitor of sub-nanomolar affinity^81. Pepstatin-Alexa647 was synthesized by dissolving 1 mg pepstatin A (Sigma-Aldrich) in a 50:50 mixture of dimethylformamide (DMF) and dimethylsulfoxide (DMS) followed by the addition of N,N,N′,N′-Tetramethyl-O—(N-succinimidyl)uronium tetrafluoroborate (0.6 mg) and trimethylamine (10 μL) DMF. The mixture was stirred for 1 hour, after which 1 mg Alexa Fluor 647 Cadaverine, Disodium Salt (ThermoFisher Scientific) was added. After 2 hours, the solvents were evaporated under high vacuum (35° C.) and residue partially dissolved in 10% methanol and transferred onto a C18 cartridge (Waters Corporation, Milford, MA). Increasing percentages of methanol were used for the elution. […] An enzymatic inhibition assay was designed using casein substrate.^82 Bovine alpha casein (Sigma-Aldrich, St. Louis, MO) was labeled with Alexa Fluor 647 Carboxylic Acid, Succinimidyl Ester (ThermoFisher Scientific, Waltham, MA) as described.^82 Briefly, the two were combined at 2.5 ug/mg label to protein ratio in 0.1M sodium bicarbonate for 15 minutes and labeled casein was separated from unbound label in a Sephadex G-25 (Sigma-Aldrich) column comprised of 90×5 mm packed beads in a glass Pasteur pipette, eluted with dPBS pH7.4 (ThermoFisher Scientific). The fast-moving band (casein-bound fluorophore) was collected in ˜0.4 ml volume. Concentration of resultant probe (casein-Alexa647 in PBS-azide) was estimated via spectrophotometry using Beer's law (Implen Nanophotometer, Implen, Inc. Westlake Village, CA).
Assays were optimized using ranges of 0.3-1000 μM unlabeled pepstatin, 100-500 nM pepstatin-Alexa647 or casein-Alexa647 probe, 0.003-3 U/μl porcine pepsin (Worthington Biochemical Corporation, Lakewood, NJ), and 5-37.5% DMSO (HIV protease inhibitor diluent) in 0.1 M HCl, pH 1 with 0.01% v/v Tween-20 in 20 μl volumes in 384-well black optical plates (Nunc, Roskilde, DK) and read on a BioTek Cytation 5 (BioTek Instruments, Winooski, VT) with far red FP filter cube (excitation/emission 620/680 nm). Unlabeled pepstatin dose-response curves were used to ensure that the assays were responsive to pepsin inhibition. […] Assays were performed twice with triplicate reactions read for five minutes and mean mP plotted against probe concentration (binding assay) or read at <2 minutes intervals over 30 minutes with mean mP of plotted over time (activity assay). Half maximal inhibitory concentration (IC50) of inhibitors were calculated from kinetic traces analyzed using an online tool (https://icekat.herokuapp.com/icekat)^83. mP was normalized to blank (absent inhibitor) to derive percent bound or activity.

Data set [1] relates to LPR mouse model (pepsin-mediated laryngeal damage). The data set can be described thus: in vivo LPR mouse model: mechanical injury plus laryngeal pepsin instillation, H&E histology. The note with it: for protection against pepsin-mediated laryngeal damage (histology): 0.3 mg/ml pepsin pH7, 4 weeks. From the text: Three replicate animals per treatment condition were anticipated to suffice for verification of reproducibility in each experiment without excessive use of animal life. The three mice were randomly allocated to treatment groups. No data were excluded from analysis.
Six-week-old female Jackson A/J mice (Jackson Laboratory, Bar Harbor, ME) were fed D-62 powdered Wattenberg diet, 2 g/mouse/day^95 and allowed to acclimate for one week upon arrival prior to experiments. In accord with previously established methods for modeling aerodigestive tract damage attributed to GERD and LPR,^1,95-99 mechanical injury applied during the first two weeks of a four-week treatment course was used to predispose the laryngeal mucosa to chemical injury by pepsin/acid applied throughout the four weeks. […] Briefly, anesthetized mice were suspended by upper teeth on a slanted board under an operating microscope.
In a preliminary experiment to validate the LPR mouse model (i.e. laryngeal damage by pepsin at neutral and acidic pH), 20 μl saline (solvent control) or 0.3 mg/ml pepsin at pH7.0 or 4.0 were provided to mice (n=3) by laryngeal instillation at 24, 48, and 72 hours after mechanical injury during weeks 1 and 2 (FIG. 6); laryngeal instillation without wounding (3 days/week) continued during weeks 3 and 4. […] Mice were sacrificed at conclusion of the fourth week.
To test the protective effect of HIV protease inhibitors on pepsin-mediated damage in vivo, inhibitors were delivered by aerosol or gavage concurrently with wounding (days 2, 8) and solvent/pepsin instillation (days 3-5, 9-11, 16-18 and 23-25). Aerosol or gavage was provided on days 1-5, 8-12, 15-19, and 22-25, and mice sacrificed day 26. Mice were anesthetized with isoflurane (3% in 2.5LPM, 3-5 minutes prior to procedures) as opposed to Avertin due to frequency. […] Aerosol was generated as described^100. Briefly, a 10 ml suspension of drug in ethanol was placed in the baffle, such that the concentration would remain constant at the equilibrium solubility. Droplets of ethanol containing dissolved drug were generated by an ultrasonic atomizer (nominal frequency 1.7 MHz) and entrained by air at a flow rate of 0.5 LPM with a custom-built glass baffle (UMN Department of Chemistry Glass Shop). The aerosol cloud was then passed through a cylindrical drying column containing an annular ring of charcoal. The ethanol was removed and the emanating dry aerosol particles of pure drug were then directed into the exposure chamber. The mass deposited on filters was measured gravimetrically and total output rate (mg/min) was determined. The aerosol concentration (mass/volume of air) was calculated by dividing the total output rate by the air flow rate (0.5 LPM). The inhaled mass of drug (Minh) for each mouse was defined as Minh=[Aerosol]*RMV*t, where Aerosol is the aerosol concentration of drug, RMV is the respiratory minute volume of the mice (0.025 L/min), and t is the aerosol exposure time. […] Actual mass deposited was not determined but anticipated to be 10% of inhaled mass (the deposition fraction of […] aerosol particles in mice).
Tissues were collected, fixed in paraformaldehyde, embedded in paraffin and 4 um sections stained with hematoxylin and eosin (H&E) via automated stainer. Slides were reviewed by a board-certified pathologist (JM) blinded to treatment groups.

This is an account of results in patent US20240041764A1, “Sustained-Release Oral Fosamprenavir Formulation for Treatment of Reflux” (The Medical College of Wisconsin, Inc., priority 2022, published 2024).

Entries after “also recorded” stand apart in the source; their conditions may differ.

T1 sequence (P00791 60-385): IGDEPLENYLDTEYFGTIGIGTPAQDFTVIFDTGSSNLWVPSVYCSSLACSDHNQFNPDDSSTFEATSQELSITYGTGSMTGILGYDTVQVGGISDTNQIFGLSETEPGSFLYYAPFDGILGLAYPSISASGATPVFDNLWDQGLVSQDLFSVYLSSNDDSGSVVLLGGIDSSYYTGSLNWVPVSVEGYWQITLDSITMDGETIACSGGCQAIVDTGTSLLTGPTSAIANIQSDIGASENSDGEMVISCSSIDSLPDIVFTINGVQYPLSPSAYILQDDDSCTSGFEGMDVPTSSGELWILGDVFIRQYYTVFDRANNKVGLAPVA

`CC(C)CN(C[C@@H](O)[C@H](Cc1ccccc1)NC(=O)O[C@H]1CO[C@H]2OCC[C@H]21)S(=O)(=O)c1ccc(N)cc1` [darunavir, [(3aS,4R,6aR)-2,3,3a,4,5,6a-hexahydrofuro[2,3-b]furan-4-yl]N-[(2S,3R)-4-[(4-aminophenyl)sulfonyl-(2-methylpropyl)amino]-3-hydroxy-1-phenylbutan-2-yl]carbamate]: the “inhibited pepsin (peptic activity)” value against porcine pepsin (200 nM probe, 0.01 U/μL pepsin, 5% DMSO, 0.1 M HCl pH 1) is reported as “low micromolar”. The IC50 for pepsin entry on porcine pepsin is recorded as “low micromolar range”; on porcine pepsin (listed as Darunavir) it was “lowest IC50”. Moreover, the “laryngeal histology, drug with saline (solvent), no pepsin” value in data set [1] (aerosol) is “absent”; in data set [1] (gavage), “Mild reactivity”; in data set [1] (gavage, listed as Darunavir), “mild reactivity (rare intraepithelial lymphocytes)”. The “protection against pepsin-mediated laryngeal damage (histology)” value in data set [1] (aerosol, inhaled mass 0.93 mg/kg/day fosamprenavir, 12 mg/kg/day darunavir) was “moderate protection against pepsin-mediated damage; also recorded: mild protection against pepsin-mediated damage”; in data set [1] (gavage, 20 mg/kg/day fosamprenavir (Lexiva), 8.6 mg/kg/day darunavir (Prezista)) it was “obscured the ability to detect its effect on pepsin-mediated damage and not and appeared similar”.
